Test results taken from patent publication US20240307419A1, “CONFORMATIONALLY-CONSTRAINED INHIBITORS OF 3C OR 3C-LIKE PROTEASES” (priority 2021, published 2024).

What follows are compounds tested against SARS-CoV-2 3CLpro (Severe acute respiratory syndrome coronavirus 2 (2019-nCoV) (SARS-CoV-2), UniProt P0DTD1) (assay: biochemical). Details: read-out: IC50.
Format: biochemical

Structure (SMILES)	IC50 [nM]
CCCCCC12CCC(COC(=O)N[C@@H](CC(C)C)C(=O)N[C@H](C=O)C[C@@H]3CCNC3=O)(CC1)CC2 [Compound 2i, (4-Pentylbicyclo[2.2.2]octan-1-yl)methyl ((S)-4-methyl-1-oxo-1-(((S)-1-oxo-3-((S)-2-oxopyrrolidin-3-yl)propan-2-yl)amino)pentan-2-yl)carbamate]	270 ± 20
CC(C)C[C@H](NC(=O)OCC12CC3CC(CC(C3)C1)C2)C(=O)N[C@H](C=O)C[C@H]1CCNC1=O [Compound 2l, ((3S,5S,7S)-Adamantan-1-yl)methyl-d2 ((S)-4-methyl-1-oxo-1-(((S)-1-oxo-3-((S)-2-oxopyrrolidin-3-yl)propan-2-yl)amino)pentan-2-yl)carbamate]	290 ± 40
CC(C)C[C@H](NC(=O)OC[C@@]12C[C@@H]3C[C@@H](C[C@@](O)(C3)C1)C2)C(=O)N[C@H](C=O)C[C@@H]1CCNC1=O [Compound 2o, ((1r,3R,5R,7S)-3-Hydroxyadamantan-1-yl)methyl-d2 ((S)-4-methyl-1-oxo-1-(((S)-1-oxo-3-((S)-2-oxopyrrolidin-3-yl)propan-2-yl)amino)pentan-2-yl)carbamate]	740 ± 260
CCCCCC12CCC(COC(=O)N[C@@H](CC(C)C)C(=O)N[C@@H](C[C@@H]3CCNC3=O)C(O)S(=O)(=O)O)(CC1)CC2 (stereo partly drawn) [Compound 3i, Sodium (2S)-1-hydroxy-2-((S)-4-methyl-2-((((4-pentylbicyclo[2.2.2]octan-1-yl)methoxy)carbonyl)amino)pentanamido)-3-((S)-2-oxopyrrolidin-3-yl)propane-1-sulfonate]	300 ± 20
[2H]C([2H])(OC(=O)N[C@@H](CC(C)C)C(=O)N[C@@H](C[C@@H]1CCNC1=O)C(O)S(=O)(=O)[O-])C12CCC(CCCCC)(CC1)CC2.[Na+] (stereo partly drawn) [Compound 3j, Sodium (2S)-1-hydroxy-2-((S)-4-methyl-2-((((4-pentylbicyclo[2.2.2]octan-1-yl)methoxy-d2)carbonyl)amino)pentanamido)-3-((S)-2-oxopyrrolidin-3-yl)propane-1-sulfonate]	310 ± 60
CC(C)C[C@H](NC(=O)OCC12CC3CC(CC(C3)C1)C2)C(=O)N[C@@H](C[C@H]1CCNC1=O)C(O)S(=O)(=O)O (stereo partly drawn) [Compound 3l, Sodium (2S)-2-((S)-2-(((((3S,5S,7S)-adamantan-1-yl)methoxy-d2)carbonyl)amino)-4-methylpentanamido)-1-hydroxy-3-((S)-2-oxopyrrolidin-3-yl)propane-1-sulfonate]	270 ± 40
CC(C)C[C@H](NC(=O)OCC12CC3CC(CC(O)(C3)C1)C2)C(=O)N[C@@H](C[C@H]1CCNC1=O)C(O)S(=O)(=O)O (stereo partly drawn) [Compound 3o, Sodium (2S)-1-hydroxy-2-((S)-2-(((((1r,3R,5R,7S)-3-hydroxyadamantan-1-yl)methoxy-d2)carbonyl)amino)-4-methylpentanamido)-3-((S)-2-oxopyrrolidin-3-yl)propane-1-sulfonate]	780 ± 180

Each compound was assayed on CRFK cells (assay: not given). Details: cat.

Structure (SMILES)	CC50 [nM]
CC(C)C[C@H](NC(=O)OC1CC2(C1)CN(S(C)(=O)=O)C2)C(=O)N[C@H](C=O)C[C@H]1CCNC1=O [Compound 4b, 2-(Methylsulfonyl)-2-azaspiro[3.3]heptan-6-yl ((S)-4-methyl-1-oxo-1-(((S)-1-oxo-3-((R)-2-oxopyrrolidin-3-yl)propan-2-yl)amino)pentan-2-yl)carbamate]	> 100000
CC(C)C[C@H](NC(=O)OC1CC2(C1)CN(S(C)(=O)=O)C2)C(=O)N[C@@H](C[C@H]1CCNC1=O)C(O)S(=O)(=O)O (stereo partly drawn) [Compound 4c, Sodium (2S)-1-hydroxy-2-((S)-4-methyl-2-((((2-(methylsulfonyl)-2-azaspiro[3.3]heptan-6-yl)oxy)carbonyl)amino)pentanamido)-3-((R)-2-oxopyrrolidin-3-yl)propane-1-sulfonate]	> 100000
CC(C)C[C@H](NC(=O)OC1CC2(CCN(C(=O)OC(C)(C)C)C2)C1)C(=O)N[C@H](C=O)C[C@H]1CCNC1=O (stereo partly drawn) [Compound 5b, Tert-butyl 2-((((S)-4-methyl-1-oxo-1-(((S)-1-oxo-3-((R)-2-oxopyrrolidin-3-yl)propan-2-yl)amino)pentan-2-yl)carbamoyl)oxy)-6-azaspiro[3.4]octane-6-carboxylate]	> 100000
